{"source": "paper PMC11301932", "about": "(Fluids and Barriers of the CNS, 2024)", "key": {"Abcb1a/b": {"target": "Abcb1a/b (Mus musculus, UniProt P21447)", "sequence (P21447 whole entry)": "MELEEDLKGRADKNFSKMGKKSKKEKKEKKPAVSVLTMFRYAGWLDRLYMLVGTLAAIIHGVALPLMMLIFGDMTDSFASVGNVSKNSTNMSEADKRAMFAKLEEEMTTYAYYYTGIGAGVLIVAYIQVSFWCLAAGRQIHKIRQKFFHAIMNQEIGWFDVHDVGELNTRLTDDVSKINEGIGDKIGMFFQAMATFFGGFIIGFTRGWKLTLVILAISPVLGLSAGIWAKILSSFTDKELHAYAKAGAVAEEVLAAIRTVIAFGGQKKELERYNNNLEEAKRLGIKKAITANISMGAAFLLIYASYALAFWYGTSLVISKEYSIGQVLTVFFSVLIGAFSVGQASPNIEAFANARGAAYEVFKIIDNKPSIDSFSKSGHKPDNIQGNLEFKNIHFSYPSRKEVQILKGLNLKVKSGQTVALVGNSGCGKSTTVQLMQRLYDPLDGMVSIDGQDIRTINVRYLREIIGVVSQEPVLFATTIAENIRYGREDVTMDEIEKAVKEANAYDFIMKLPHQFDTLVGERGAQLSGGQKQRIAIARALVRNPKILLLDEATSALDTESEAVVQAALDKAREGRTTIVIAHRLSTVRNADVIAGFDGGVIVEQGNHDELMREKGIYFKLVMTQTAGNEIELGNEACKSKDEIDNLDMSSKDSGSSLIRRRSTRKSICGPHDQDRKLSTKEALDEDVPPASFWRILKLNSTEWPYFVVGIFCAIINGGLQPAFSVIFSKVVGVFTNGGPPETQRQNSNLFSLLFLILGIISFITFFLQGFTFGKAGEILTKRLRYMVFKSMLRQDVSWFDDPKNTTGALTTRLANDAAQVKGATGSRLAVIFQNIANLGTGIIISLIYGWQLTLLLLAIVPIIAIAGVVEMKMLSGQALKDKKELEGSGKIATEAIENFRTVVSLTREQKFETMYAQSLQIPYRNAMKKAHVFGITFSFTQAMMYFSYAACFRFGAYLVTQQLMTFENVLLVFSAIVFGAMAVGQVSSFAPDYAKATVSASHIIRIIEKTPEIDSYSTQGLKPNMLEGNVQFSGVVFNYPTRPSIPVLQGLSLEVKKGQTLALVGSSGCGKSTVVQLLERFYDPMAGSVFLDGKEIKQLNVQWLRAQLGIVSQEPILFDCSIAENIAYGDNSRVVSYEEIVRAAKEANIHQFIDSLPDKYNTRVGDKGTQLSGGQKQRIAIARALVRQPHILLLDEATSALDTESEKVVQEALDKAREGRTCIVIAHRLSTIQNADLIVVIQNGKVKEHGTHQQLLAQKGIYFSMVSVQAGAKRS", "assay": "Inhibition of efflux of substrate drugs from the brain of Abcg2 KO mice", "format": "in vivo"}, "Abcg2": {"target": "T1, Abcg2 (Mus musculus, UniProt Q7TMS5)", "T1 sequence (Q7TMS5 1-657)": "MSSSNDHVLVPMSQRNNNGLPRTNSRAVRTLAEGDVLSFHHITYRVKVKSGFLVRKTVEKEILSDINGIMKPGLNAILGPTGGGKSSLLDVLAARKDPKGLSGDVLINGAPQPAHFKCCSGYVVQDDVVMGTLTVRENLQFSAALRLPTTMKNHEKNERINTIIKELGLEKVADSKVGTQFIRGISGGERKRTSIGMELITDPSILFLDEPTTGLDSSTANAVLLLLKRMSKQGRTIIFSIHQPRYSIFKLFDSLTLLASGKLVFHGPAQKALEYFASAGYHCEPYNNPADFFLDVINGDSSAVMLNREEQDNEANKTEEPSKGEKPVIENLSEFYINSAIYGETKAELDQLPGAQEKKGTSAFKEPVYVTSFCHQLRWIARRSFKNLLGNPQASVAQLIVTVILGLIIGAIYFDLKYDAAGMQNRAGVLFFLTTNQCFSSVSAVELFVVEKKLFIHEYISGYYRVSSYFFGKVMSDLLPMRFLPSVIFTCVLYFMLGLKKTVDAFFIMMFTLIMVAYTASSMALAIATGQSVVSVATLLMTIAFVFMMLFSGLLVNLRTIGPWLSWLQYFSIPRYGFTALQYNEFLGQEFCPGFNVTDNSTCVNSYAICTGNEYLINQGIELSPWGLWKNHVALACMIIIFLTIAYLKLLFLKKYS", "assay": "Inhibition of efflux of substrate drugs from the brain of Abcb1a/b KO mice", "format": "in vivo"}, "[1]": {"assay": "Plasma concentration at the end of the 3 h i.p. infusion", "format": "in vivo", "conditions": "male, FVB, mouse, ip"}, "[2]": {"assay": "Rapid equilibrium dialysis", "format": "in vitro ADME"}, "[3]": {"conditions": "cited from earlier work"}, "[4]": {"conditions": "standard procedure using buffer in the receiver compartment; ref [24], [33]; cited from earlier work"}, "ABCB1": {"test_system": "ABCB1", "conditions": "humans, cited from earlier work"}, "human ABCG2/BCRP": {"target": "T2, human ABCG2/BCRP (Homo sapiens, UniProt Q9UNQ0)", "T2 sequence (Q9UNQ0 1-655)": "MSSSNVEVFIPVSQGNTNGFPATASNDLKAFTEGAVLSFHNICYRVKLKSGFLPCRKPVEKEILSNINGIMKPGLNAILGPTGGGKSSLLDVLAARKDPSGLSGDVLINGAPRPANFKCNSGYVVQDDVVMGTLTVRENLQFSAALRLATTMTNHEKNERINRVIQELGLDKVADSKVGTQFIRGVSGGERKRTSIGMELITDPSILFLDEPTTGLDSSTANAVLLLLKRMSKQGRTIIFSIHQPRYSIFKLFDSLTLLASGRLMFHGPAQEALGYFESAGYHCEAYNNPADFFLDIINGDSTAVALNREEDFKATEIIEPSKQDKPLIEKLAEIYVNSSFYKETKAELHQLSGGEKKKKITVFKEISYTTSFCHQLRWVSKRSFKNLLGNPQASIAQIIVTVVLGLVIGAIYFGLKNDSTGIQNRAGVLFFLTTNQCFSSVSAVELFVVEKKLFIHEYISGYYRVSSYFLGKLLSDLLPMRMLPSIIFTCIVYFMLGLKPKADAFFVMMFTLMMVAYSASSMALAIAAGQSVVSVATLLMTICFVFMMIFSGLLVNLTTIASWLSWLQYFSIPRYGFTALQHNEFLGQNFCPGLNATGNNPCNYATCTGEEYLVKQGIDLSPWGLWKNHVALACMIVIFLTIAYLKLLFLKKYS", "assay": "Drug accumulation assay in MDCKII-BCRP cells with 8-drug mixture plus inhibitor", "conditions": "in vitro, MDCKII-BCRP vs MDCK-MDR1"}, "[5]": {"conditions": "cited from earlier work", "remark": "listed apart in the source"}, "Brain penetration": {"assay": "Brain penetration", "conditions": "WT mice, ABC transporter mediated efflux present, no inhibitor"}, "Abcb1a/b and Abcg2": {"test_system": "Abcb1a/b and Abcg2", "assay": "Inhibition of efflux of substrate drugs from the brain of WT mice", "conditions": "mouse, in vivo"}}, "note": "Where two headings read alike, the source gives them in different places.", "data": [{"compound": "COc1cc2c(cc1OC)CN(CCc1ccc(NC(=O)c3cc(OC)c(OC)cc3NC(=O)c3cnc4ccccc4c3)cc1)CC2", "note": "[Tariquidar]", "values": [{"measurement": "Inhibitor plasma level for (near) complete inhibition of ABCB1 at the BBB", "setting": "Abcb1a/b", "result": "at least 4000 nM"}, {"measurement": "Plasma level above which own B/P ratio starts to increase", "setting": "Abcb1a/b", "result": "above 4000 nM"}, {"measurement": "Tariquidar plasma level required for near complete ABCB1 inhibition", "setting": "Abcb1a/b; for loperamide and afatinib", "result": "≥ 6", "unit": "µM"}, {"measurement": "Tariquidar plasma level required for near complete ABCB1 inhibition", "setting": "Abcb1a/b; for verapamil and erlotinib", "result": "at least 4000 nM"}, {"measurement": "Change of own B/P ratio with plasma concentration", "setting": "Abcg2; Abcb1a/b KO and WT mice (Abcg2 proficient)", "result": "did not increase"}, {"measurement": "Enhancement of brain accumulation of ABCG2-substrate drugs", "setting": "Abcg2; Abcb1a/b KO mice", "result": "none of the ABCG2-substrate drugs exhibit significant enhancement"}, {"measurement": "concentration at 3 h", "setting": "[1]; 10.5 mg/kg/h", "result": "> 6000", "unit": "nM"}, {"measurement": "Plasma protein binding, mouse versus human plasma", "setting": "[2]; RED competition setup", "result": "very high but similar in mouse and human plasma"}, {"measurement": "Fraction retrieved in the receiver chamber", "setting": "[2]; RED, undiluted human or mouse plasma to human plasma, after 24 h of incubation", "result": "2–3%"}, {"measurement": "Plasma level at the end of the infusion", "setting": "[3]; humans, tariquidar 4–8 mg/kg i.v., 1.5–2.5 h, ref [19], [35]", "result": "3000 to 4000", "unit": "nM"}, {"measurement": "Oral bioavailability", "setting": "[3]; oral dosing in humans, ref [20]", "result": "very low"}, {"measurement": "Free fraction", "setting": "[4]", "result": "below 0.01"}, {"measurement": "Fold increase of VT, brain of [11C]verapamil", "setting": "ABCB1; tariquidar 4–8 mg/kg, infusion 1.5–2.5 h, ref [19], [35]", "result": 3.5, "unit": "fold"}, {"measurement": "Fold increased brain radioactivity of [11C]verapamil", "setting": "ABCB1; tariquidar 2 mg/kg, 30 min i.v. infusion, ref [41]", "result": "≤ 2", "unit": "fold"}, {"measurement": "Fold higher IC50 for ABCG2 than for ABCB1", "setting": "human ABCG2/BCRP", "result": "about 10 fold"}]}, {"compound": "CNC(=O)c1cc(Oc2ccc(N[11C](=O)Nc3ccc(Cl)c(C(F)(F)F)c3)cc2)ccn1", "note": "[[^11C]sorafenib]", "values": [{"measurement": "Fold higher brain uptake in Abcg2;Abcb1a/b KO vs WT mice", "setting": "[5]; PET, ref [38]", "result": 3, "unit": "fold"}]}, {"compound": "C#Cc1cccc(Nc2ncnc3cc(OCCOC)c(OCCOC)cc23)c1", "note": "[Erlotinib]", "values": [{"measurement": "concentration at 3 h", "setting": "[1]", "result": "100 to 250", "unit": "nM"}]}, {"compound": "CNC(=O)c1cc(Oc2ccc(NC(=O)Nc3ccc(Cl)c(C(F)(F)F)c3)cc2)ccn1", "note": "[Sorafenib]", "values": [{"measurement": "Fold higher brain uptake in Abcg2;Abcb1a/b KO vs WT mice", "setting": "[5]; LC-MS/MS on brain homogenates, ref [39]", "result": 9.3, "unit": "fold"}]}, {"compound": "COc1ccc(CCN(C)CCCC(C#N)(c2ccc(OC)c(OC)c2)C(C)C)cc1OC", "note": "(stereo not shown) [Verapamil]", "values": [{"measurement": "concentration at 3 h", "setting": "[1]", "result": "100 to 250", "unit": "nM"}]}, {"compound": "CCCS(=O)(=O)Nc1ccc(F)c(C(=O)c2c[nH]c3ncc(-c4ccc(Cl)cc4)cc23)c1F", "note": "[Vemurafenib]", "values": [{"measurement": "concentration at 3 h", "setting": "[1]", "result": "100 to 250", "unit": "nM"}, {"measurement": "B/P ratio", "setting": "Brain penetration", "result": 0.02}]}, {"compound": "COc1cc2c(cc1OC)CN(CCc1ccc(NC(=O)c3cccc4c(=O)c5cccc(OC)c5[nH]c34)cc1)CC2", "note": "[Elacridar, 9,10-dihydro-5-methoxy-9-oxo-N-[4-[2-(1,2,3,4-tetrahydro-6,7-dimethoxy-2-isoquinolinyl)ethyl]phenyl]-4-acridine-carboxamide]", "values": [{"measurement": "Elacridar plasma level for maximum inhibition of efflux", "setting": "Abcg2; Abcb1a/b KO mice, palbociclib, dasatinib and erlotinib (Class II)", "result": "above 1200 nM"}, {"measurement": "Plasma level at which inhibitor inhibits its own ABCG2-mediated efflux", "setting": "Abcg2; brain efflux in mice", "result": "about 1200 nM"}, {"measurement": "Proposed target plasma level to enhance brain entry", "setting": "Abcb1a/b and Abcg2", "result": "1200 nM and about 700 ng/ml"}, {"measurement": "Free fraction", "setting": "[4]", "result": "below 0.01"}]}]}
